Assay results published in ChEMBL document CHEMBL3507680, “University of Dundee, Gates Library screen for HepG2 cell viability”.

assay: Human HepG2 cell viability assay in 384 well format; type: toxicity, cell-based; parameters: dose 125 nL, time 70.5 hour; cytotoxicity at 70.5 h: concentration not given beside the values; settings: HepG2 cells, read-out: Inhibition

SMILES	cytotoxicity at 70.5 h
CN(Cc1ccccn1)C(=O)Nc1cc(C(F)(F)F)c[nH]c1=O	-1.8%
CSc1nnc(CNC(=O)Nc2ccccc2Br)n1C	-3.94%
O=C(c1cc[nH]n1)N(Cc1cccc(O)c1)CC1CC1	-7.41%
CC(C)=Cc1c(-c2ccccc2)ncn1CCN(C)S(C)(=O)=O	0.261%
O=C(Cc1ccc(F)c(Br)c1)N1CCN(CCO)CC1	-3.28%
CN(C)c1nc2c(c(N3CCC4(CCCNC4=O)C3)n1)CCCC2 (centres undefined)	8.69%
O=C1CSC(c2ccc(Cl)cc2Cl)c2c(n(C3CCOCC3)[nH]c2=O)N1 (centres undefined)	-23.1%
O=C(NC1CCCC1)c1cc2c(s1)CCN2C(=O)c1ccccc1	0.186%
O=C(NCC1CCOCC1)[C@@H]1CC[C@@H]2[C@@H](CCN2Cc2ccncc2)O1	-0.695%
Cc1cc(CN2C[C@@H]3CN(C(=O)c4cccn4C)CCO[C@@H]3C2)no1	1.95%
O=C(CCC(=O)N1CCC(OCc2cccnc2)CC1)c1ccccc1	-1.13%
O=C(C1CCCCC1)N1CCC2(CC1)OCCO2	-5.09%
CSc1ccc(-c2nc(CN3CCC(NC(C)=O)C3)c(C)o2)cc1 (centres undefined)	-1.58%
CCOCCCC(=O)Nc1ccc(OCc2noc(C3CC3)n2)cc1	7.14%
O=C(CC1CC1)N1Cc2nccn2CC(Cn2ncccc2=O)C1 (centres undefined)	-6.18%
CC(C)c1nnc2n1CCN(Cc1cc(Cl)c3c(c1)OCCO3)C2	-4.04%
Cn1cnc2c1CCN(Cc1csc(-c3ccccc3F)n1)C2	-3.29%
Cc1cccc(CN2C(=O)CC[C@@H]3[C@H]2CCN3CC2CCOCC2)n1	-18.9%
COCCOc1ccc(NC(=O)C2CCC2)cn1	-7.54%
CC(C)CS(=O)(=O)N1C[C@H]2C[C@H](C(=O)Nc3cccnc3)[C@@H](C1)O2	-6.34%
COc1cccc(-c2cnc(C3CCNCC3)cn2)c1	-4.54%
CNC(=O)C1CCCCN1C(=O)c1sc(-c2ccc(C)o2)nc1C (centres undefined)	3.27%

SMILES	cytotoxicity at 70.5 h
COCCN(C(=O)c1cnccn1)c1nc2c(s1)CCc1c-2cnn1C	7%
CC(C)c1sc(Br)nc1C(=O)NCc1ccco1	32.2%
CCc1nc(C)ncc1C(=O)N1CCCC(n2nc(C)nc2C)C1 (centres undefined)	-12%
O=C(Nc1cccnc1)C1=NN(c2ccccc2)C(=O)CN1	6.02%
Cn1cccc1C(=O)NCc1cnc2n1CCN(CC1CC1)C2	3.59%
Cc1cc(O)ccc1-c1cc(-c2cnn(C)c2C2CC2)c(C#N)c(N)n1	19.9%
CN(C)Cc1nnn2c1CN(Cc1cccnc1)CCC2	-83.6%
CN1CCC(C(=O)N2CCCN(c3cccnn3)CC2)C1 (centres undefined)	-14.6%
CCC1(CC)CC(=O)N(CC(O)c2cccc(F)c2)C1=O (centres undefined)	-3.42%
COc1ccccc1CNCCc1cccc(C(N)=O)c1	-12.3%
Cc1ccc(CN2CC[C@H]3OCC[C@@]3(COCC(=O)N(C)C)C2)s1	15.2%
Cc1nn(C)c2cn(CC(=O)N3CCN(c4ccccc4)CC3)nc12	7.34%
Cn1cc(CN2CCCC(CCc3ccc(F)cc3F)C2)cn1 (centres undefined)	-3.89%
O=C(NCc1ncc(-c2ccccc2)o1)NC1CCC(O)CC1 (centres undefined)	-7.39%
CCc1nnc2n1CCN(C(=O)c1ccc3c(c1)NC(=O)CO3)C2	-1.73%
c1cncc(CN2CCCC3(COCCN(c4nccs4)C3)C2)c1 (centres undefined)	-5.78%
CCN(CC)c1ccc(C2C3=C(COC3=O)Nc3[nH]nc(C)c32)cc1 (centres undefined)	-4.13%
Cc1cc(C)n(-c2cncc(N3CCN(C(=O)CN(C)C)CC3)n2)n1	-11.6%
CN(C)CCN1C[C@@H]2CN(S(=O)(=O)c3cccs3)C[C@@H]2C1=O	-10.9%
Cc1nc(CNC(=O)C(C)Oc2ccccc2F)no1 (centres undefined)	-5.02%
CCCN1CCc2nc(N3CCOCC3)nc(NC(C)C)c2C1	-8.9%
CC(C)(N)C(=O)N1CCCC(c2cncc(Oc3cccnc3)n2)C1 (centres undefined)	-3.9%
